Source: patent US20250018029A1, “METHODS TO ALTER THE TUMOR MICROENVIRONMENT FOR EFFECTIVE CANCER IMMUNOTHERAPY” (PDS BIOTECHNOLOGY CORPORATION, priority 2016, published 2025)
No end group written: not given here. *: point of attachment. Palmitoyl = CCCCCCCCCCCCCCCC(=O)*

How the values were obtained:
[1] = test system: OT1 splenocytes (TCR transgenic T cells specific for SIINFEKL); experiment: Cross-presentation of OVA by DC to MHC class I restricted OT-1 T cells (3H-thymidine uptake); format: cell-based, mouse; conditions: whole OVA protein, 25 uM lipid, 37° C., versus OVA without cationic lipid
Method: FIG. 3: R-DOTAP enhancement of antigen processing results in enhancement of cross-presentation to MHC class I restricted T cells. Bone marrow derived DC were incubated in the presence of various concentrations of whole OVA protein and 25 uM DOTAP or DOTMA for 30 min at 37° C. or 4° C.
In order to verify that the cationic lipid facilitated uptake of antigen translates into enhanced antigen presentation on MHC class I (cross presentation), T cells from a TCR transgenic mouse (OT-1) were utilized in which all T cells are specific for an internal peptide of OVA. These T-cells will only proliferate if presented with DCs which have processed OVA and presented an OVA peptide on MHC class I molecules. Thus, this represents a stringent assay for cross-presentation. BMDC were incubated with different concentrations of the whole OVA protein in the presence or absence of two cationic lipids, either DOTAP or DOTMA for 1 hour at 37° C. The DCs were then washed, fixed and added to the OVA peptide specific T-cells. […] This response was dose dependent with respect to the OVA concentration, and was even apparent when DC were incubated with OVA at 4° C.

[2] = test system: Bone marrow derived dendritic cells (BMDC); experiment: DQ-OVA uptake and processing by bone marrow derived dendritic cells (flow cytometry); format: cell-based, mouse; conditions: for uptake and processing of DQ-OVA by DC (fluorescence): 37° C., versus DQ-OVA in media alone
Method: FIG. 1 provides a graph showing that DOTAP enhancement of antigen processing is specific for dendritic cells. Bone marrow derived dendritic cells were incubated with DQ-OVA in the presence of various concentrations of DOTAP as shown. In addition, a mouse epithelial cell line, TC1, was treated in an identical fashion.
FIG. 2 provides fluorescence readings for receptor mediated uptake. R-DOTAP nanoparticles, but not MPL stimulate uptake and processing by DC within 10 minutes. Mouse bone marrow DC were incubated in the presence of fluorescent DQ-OVA for one hour at either 37° C. or 4° C./azide in the presence of 25 uM DOTAP nanoparticles, 10 ug/ml MPL or media alone, and analyzed by flow cytometry. On the presented density plot, the y-axis represents the amount of green fluorescence which results from uptake and processing of the protein, while the x-axis represents the amount of red fluorescence resulting from concentration in endosomal vesicles.
To determine the effects of cationic lipids on antigen uptake and processing by dendritic cells, a fluorescent ovalbumin protein called DQ-OVA was used. DQ-OVA is non-fluorescent when intact, but emits both red and green fluorescence when the protein is degraded. Dendritic cells were grown from mouse bone marrow by culturing for 8 days in GMCSF+IL-4 (hereafter referred to as BMDC). BMDC were incubated at 37° C. or 4° C. for 1 hour with DQ-OVA alone, or DQ-OVA mixed with different concentrations of the cationic lipid R-DOTAP. The cells were then washed, fixed, and stained with fluorescent antibodies to CD11c, a marker for dendritic cells. Cells were then analyzed on an LSRII flow cytometer in both red and green fluorescent channels.
To determine whether non-cationic lipid adjuvants could mediate the same effect as DOTAP, BMDC were incubated with DQ-OVA in media alone or with DOTAP as described for FIG. 1. In addition, BMDC were incubated under identical conditions with the potent lipid adjuvant […] (MPL).

[3] = test system: HPV16-specific CD8+ T-cells; experiment: HPV16-specific CD8+ T-cell induction after vaccination, ELISPOT of splenocytes; format: in vivo, C57 black mice; conditions: given with KF18 HPV peptide, vaccinated Day 0 and Day 7, splenocytes Day 14, stimulated with RAHYNIVTF
Source text: Effect of HPV16-E7, R-DOTAP/HPV16-E7, S-DOTAP/HPV16-E7 and Alum/MPL/HPV16-E7 vaccination on HPV16-specific CD8+ T-cell induction by ELISpot. The HPV16 E7 peptide used in the vaccine (SEQ ID NO: 2) is labelled KF18.
C57 black mice were vaccinated with various formulations: • Group 1: KF18 HPV peptide • Group 2: KF18 HPV peptide+R-DOTAP liposomes • Group 3: KF18 HPV peptide+S-DOTAP liposomes • Group 4: KF18 peptide+MPL/Alum adjuvant • *For each of the groups above, the KF18 HPV peptide corresponds to Palmitoyl-KSS-[…] (SEQ ID NO: 2)
5 mice per group were injected with the various formulations. The mice were vaccinated on Day 0 and Day 7 and sacrificed on Day 14. The splenocytes were removed and ELISPOT studies performed. The splenocytes were stimulated with the peptide […] (SEQ ID NO: 3), the HPV16 CD8+ T-cell epitope peptide recognized by the C57 mice.

[4] = test system: CFSE labeled lymphocytes in popliteal LN; experiment: Lymph node homing of CFSE labeled adoptively transferred spleen cells, with or without pertussis toxin; format: in vivo, B6 mice; conditions: after 16 h
Source text: The primary objective of the current experiment was to understand if T-cell infiltration induced by R-DOTAP is chemokine dependent. We utilized 5 mice to perform the study, and visualized the homing of CFSE labeled adoptively transferred cells. The study included a population of cells that had been treated in vitro with pertussis toxin to inactivate chemokine receptors. Pertussis toxin-treated and untreated cells were labeled with two different concentrations of CFSE so that they could be distinguished by flow cytometry.
Spleen cells were prepared from a single B6 mouse and divided in half. Half of the cells were treated with Pertussis toxin 100 ng/ml for 1 hour at 37° C. and washed. The two cell populations were then labeled with CFSE at two different concentrations so they could be distinguished by flow cytometry, and mixed together. The mix (10e7 cells) was injected i.v. into the tail vein of 5 B6 mice. The mice were then anesthetized and injected in the footpad with either sucrose (right footpad) or R-DOTAP (left footpad, 50 ul, 600 nmoles).
After 16 h, the mice were sacrificed and the popliteal LN and spleens harvested. The total cells recovered from left and right nodes from each mouse were counted.

[5] = test system: T-cells and total lymphocytes in popliteal lymph nodes; experiment: T-cell and lymphocyte infiltration into draining lymph nodes after foot pad injection; format: in vivo, mice
Source text: FIG. 10 provides a graph showing that R-DOTAP injection induces the migration of lymphocytes including T-lymphocytes into the draining lymph nodes. […] R-DOTAP injection is represented by striped bars, and the control is represented by shaded bars.
To better understand the ability of T-cell activating cationic lipids such as R-DOTAP to promote the induction of the effector CD8+ T-cells, which are also critical in altering the tumor's microenvironment, the impact of R-DOTAP vaccination on B and T-cells was studied. 12 mM R-DOTAP or sucrose as control were injected into the right and left foot pad respectively of mice and the influx of T-cells and total lymphocytes into the draining lymph nodes were quantified by flow cytometry. In this experiment, 15 hours after vaccination the popliteal lymph nodes were removed and analysis performed. […] Five mice were used per study.

[6] = test system: T regulatory cells (CD45+CD3+CD4+CD25+Foxp3+) in tumor; experiment: Regulatory T cell population within TC-1 tumors (flow cytometry); format: in vivo, C57 mice; conditions: Day 19, within 1 week of vaccination (Day 12)
Method: FIG. 6: provides a graph showing that R-DOTAP and R-DOTAP+antigen uniquely reduce the population of regulatory T cells within the tumors after vaccination. 1×10^5 cells implanted subcutaneously on the right side of the abdomen of female B6 mice on day 0 and were vaccinated on day 12 and on day 19 post Tumor implant. T regulatory cells (CD45+CD3+CD4+CD25+Foxp3+) cells infiltrated into tumors on day 19. The reduction is calculated as the ratio of total T reg cells in tumor/average T reg cell in tumor and normalized to T reg cells in naïve mouse. Data represents mean±SEM of 4-5 mice in each group. * Statistically significant R-DOTAP+antigen compared to all other groups (other than R-DOTAP only). P<0.01.
C57 mice were divided into the following groups of 8 mice per group: • Group 1: R-DOTAP+KF18 (SEQ ID NO: 2) • Group 2: GM-CSF+KF18 (SEQ ID NO: 2) • Group 3: R-DOTAP • Group 4: GM-CSF • Group 5: KF18 (SEQ ID NO: 2) • Group 6: Naïve mice (tumor bearing and untreated). • 1×10E^5 TC-1 tumor cells were injected into the flank of the mice on day 0. The various formulations were administered on Days 12 and 19 after tumor implantation. […]

[7] = test system: HPV16-positive TC-1 tumors; experiment: Regression of established TC-1 tumors, R- versus S-DOTAP, administered Day 6; format: in vivo, mice; conditions: 1×10E^5 TC-1 cells day 0, administered on Day 6
Method: Effect of R-DOTAP (solid squares), R-DOTAP/HPV16-E7 (clear squares) and S-DOTAP/HPV16-E7 (solid circles) vaccination on regression of established HPV16-positive TC-1 tumors. The HPV16 E7 peptide used in the vaccine (SEQ ID NO: 2) is labelled KF18. Tumor volumes were measured using calipers.
R-DOTAP only, R-DOTAP/HPV16 E7 (SEQ ID NO: 2) and S-DOTAP/HPV16 E7 (SEQ ID NO: 2) were administered on Day 6 after tumor implantation.

HPV-positive TC-1 tumors = experiment: Regression of established TC-1 tumors, vaccination Days 12 and 19; format: in vivo, C57 mice
Method: Tumors were implanted on Day 0 and the mice vaccinated on Days 12 and 19. Tumor volumes were measured using calipers. The naïve mice group are tumor bearing mice that remained untreated. […] P<0.01.
C57 mice were divided into the following groups of 8 mice per group: • Group 1: R-DOTAP+KF18 (SEQ ID NO: 2) • Group 2: GM-CSF+KF18 (SEQ ID NO: 2) • Group 3: R-DOTAP • Group 4: GM-CSF • Group 5: KF18 (SEQ ID NO: 2) • Group 6: Naïve mice (tumor bearing and untreated). • 1×10E^5 TC-1 tumor cells were injected into the flank of the mice on day 0. The various formulations were administered on Days 12 and 19 after tumor implantation.
The third group of animals who were treated with either R-DOTAP alone or GM-CSF alone without antigen, or left untreated (Treg/CD8+ ratio >30) had tumor volumes of 300-700 mm^3.

Compound: CCCCCCCC/C=C\CCCCCCCC(=O)OCC(C[N+](C)(C)C)OC(=O)CCCCCCC/C=C\CCCCCCCC (stereo not shown) [DOTAP, 1,2-dioleoyl-3-trimethylammonium propane]
- cross-presentation of OVA antigen by DC to CD8+ T cells [1]: much more efficiently
- uptake of DQ-OVA by DC at 4° C. ([2]; BMDC with DQ-OVA, 1 hour, 4° C.): Significant uptake
- uptake and processing of DQ-OVA by DC (fluorescence) ([2]; BMDC with DQ-OVA, 1 hour): significant increase of fluorescence
- concentration showing the greatest effect on DQ-OVA uptake ([2]; concentration dependent effect in BMDC): 50 µM

Compound: CCCCCCCC/C=C\CCCCCCCC(=O)OCC(C[N+](C)(C)C)OC(=O)CCCCCCC/C=C\CCCCCCCC (stereo not shown) [R-DOTAP, 1,2-dioleoyl-3-trimethylammonium propane]
- HPV-specific CD8+ T-cell response (ELISPOT) [3]: effective in inducing strong HPV-specific CD8+ T-cell responses
- time within which uptake and processing by DC is stimulated ([2]; 25 uM DOTAP nanoparticles, FIG. 2 legend): ≤ 10 min
- uptake and processing of DQ-OVA by DC (fluorescence) ([2]; BMDC with DQ-OVA, 1 hour): greatly enhanced
- infiltration of pertussis toxin treated CFSE labeled cells into the lymph node ([4]; cells treated with Pertussis toxin 100 ng/ml): did not occur
- infiltration of transferred CFSE labeled lymphocytes into the lymph node ([4]; untreated cells, footpad 50 ul, 600 nmoles): infiltrated the lymph node
- infiltration of T-cells into the draining lymph node ([5]; 12 mM, foot pad, 15 hours after vaccination, sucrose as control): significant infiltration of T-cells into the lymph node
- lymphocyte infiltration into the lymph nodes over time ([5]; 5 hours, 16 hours, 3 days and 4 days): increase over the 4-day period
- reduction in the Treg population within the tumors [6]: about 20%
- anti-tumor effect on established TC-1 tumors [7]: lack of regression or inhibition of growth

Compound: CCCCCCCC/C=C\CCCCCCCC(=O)OCC(C[N+](C)(C)C)OC(=O)CCCCCCC/C=C\CCCCCCCC (stereo not shown) [S-DOTAP, 1,2-dioleoyl-3-trimethylammonium propane]
- HPV-specific CD8+ T-cell response (ELISPOT) [3]: did not result in an enhanced CD8+ T-cell response beyond what was seen with the peptide alone
- uptake and processing of DQ-OVA by DC (fluorescence) ([2]; BMDC with DQ-OVA, 1 hour): no difference

Compound: Monophorphoryl lipid-A [MPL, reference compound]
- HPV-specific CD8+ T-cell response (ELISPOT) [3]: significantly lower CD8+ T-cell response compared to R-DOTAP
- uptake and processing of DQ-OVA by DC (fluorescence) ([2]; BMDC with DQ-OVA, 1 hour): no such enhancement

Compound: Palmitoyl-KSS-GQAEPDRAHYNIVTF (Palmitoyl-KSSGQAEPDRAHYNIVTF) [KF18]
- tumor volume (HPV-positive TC-1 tumors; vaccinated Days 12 and 19, Day 26): about 200 mm^3
- tumor regression / elimination (HPV-positive TC-1 tumors; vaccinated Days 12 and 19, by Day 26): did not induce any tumor regression but rather inhibited tumor growth
